Reference: PubChem BioAssay (NCI)
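How tested: cells in 96-well plates exposed to compound for 48 hours at five concentrations. Here, GI50 denotes the concentration required for 50% inhibition of growth. TGI marks complete inhibition of growth.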

Experiments:
Assay in all cases: inhibition of tumour cell growth, NCI panel, 48 h
OVCAR-3 ovarian = system: OVCAR-3 ovarian
MDA-MB-231 breast = system: MDA-MB-231 breast
RPMI-8226 leukemia = system: RPMI-8226 leukemia
UACC-62 melanoma = system: UACC-62 melanoma
A498 renal = system: A498 renal
SK-MEL-2 melanoma = system: SK-MEL-2 melanoma
IGROV1 ovarian = system: IGROV1 ovarian
SR leukemia = system: SR leukemia
HL-60(TB) leukemia = system: HL-60(TB) leukemia
K-562 leukemia = system: K-562 leukemia
SN12C renal = system: SN12C renal
OVCAR-5 ovarian = system: OVCAR-5 ovarian
SF-295 CNS = system: SF-295 CNS
HOP-62 NSCLC = system: HOP-62 NSCLC
SK-MEL-5 melanoma = system: SK-MEL-5 melanoma
UO-31 renal = system: UO-31 renal
CAKI-1 renal = system: CAKI-1 renal
A549 NSCLC = system: A549 NSCLC
MDA-MB-435 = system: MDA-MB-435
DU-145 prostate = system: DU-145 prostate
SK-OV-3 ovarian = system: SK-OV-3 ovarian
MCF7 breast = system: MCF7 breast
HCT-116 colon = system: HCT-116 colon
NCI-H23 lung = system: NCI-H23 lung
T-47D breast = system: T-47D breast
UACC-257 melanoma = system: UACC-257 melanoma
MOLT-4 leukemia = system: MOLT-4 leukemia
786-0 renal = system: 786-0 renal
SW-620 colon = system: SW-620 colon
NCI/ADR-RES ovarian = system: NCI/ADR-RES ovarian
SNB-75 CNS = system: SNB-75 CNS
COLO 205 colon = system: COLO 205 colon
HT29 colon = system: HT29 colon
SF-539 CNS = system: SF-539 CNS
NCI-H226 lung = system: NCI-H226 lung
NCI-H460 lung = system: NCI-H460 lung
CCRF-CEM leukemia = system: CCRF-CEM leukemia
NCI-H522 lung = system: NCI-H522 lung
OVCAR-4 ovarian = system: OVCAR-4 ovarian
RXF 393 renal = system: RXF 393 renal
LOX IMVI melanoma = system: LOX IMVI melanoma
OVCAR-8 ovarian = system: OVCAR-8 ovarian
SNB-19 CNS = system: SNB-19 CNS
U251 CNS = system: U251 CNS
KM12 colon = system: KM12 colon
SK-MEL-28 melanoma = system: SK-MEL-28 melanoma
SF-268 CNS = system: SF-268 CNS
EKVX NSCLC = system: EKVX NSCLC
HCT-15 colon = system: HCT-15 colon
PC-3 prostate = system: PC-3 prostate
TK-10 renal = system: TK-10 renal
MALME-3M melanoma = system: MALME-3M melanoma
HS 578T breast = system: HS 578T breast
M14 melanoma = system: M14 melanoma
ACHN renal = system: ACHN renal
HCC-2998 colon = system: HCC-2998 colon
BT-549 breast = system: BT-549 breast

## COC(=O)c1cc2cc(-c3ccc(OC)cc3)cnc2[nH]1
OVCAR-3 ovarian
  GI50: 0.359 µM
  TGI: 1.19 µM
MDA-MB-231 breast
  GI50: 4.11 µM
  TGI: 31.2 µM
RPMI-8226 leukemia
  GI50: 1.29 µM
  TGI: > 28 µM
UACC-62 melanoma
  GI50: 1.88 µM
  TGI: > 70.1 µM
A498 renal
  GI50: 1.63 µM
  TGI: 14.3 µM
SK-MEL-2 melanoma
  GI50: 2.76 µM
  TGI: > 67.3 µM
IGROV1 ovarian
  GI50: 0.439 µM
  TGI: 2.77 µM
SR leukemia
  GI50: 0.286 µM
  TGI: 21.1 µM
HL-60(TB) leukemia
  GI50: 0.767 µM
  TGI: > 28.1 µM
K-562 leukemia
  GI50: 0.427 µM
  TGI: > 100 µM
SN12C renal
  GI50: 5.73 µM
  TGI: > 51.6 µM
OVCAR-5 ovarian
  GI50: 11.3 µM
  TGI: 73.7 µM
SF-295 CNS
  GI50: 1.32 µM
  TGI: 11.4 µM
HOP-62 NSCLC
  GI50: 2.95 µM
  TGI: 21.2 µM
SK-MEL-5 melanoma
  GI50: 0.922 µM
  TGI: 15.8 µM
UO-31 renal
  GI50: 4.06 µM
  TGI: 24.1 µM
CAKI-1 renal
  GI50: 2.28 µM
  TGI: > 38.9 µM
A549 NSCLC
  GI50: 1.13 µM
  TGI: 40.3 µM
MDA-MB-435
  GI50: 0.227 µM
  TGI: 0.666 µM
DU-145 prostate
  GI50: 2.6 µM
  TGI: 16 µM
SK-OV-3 ovarian
  GI50: 2.35 µM
  TGI: 12.9 µM
MCF7 breast
  GI50: 0.452 µM
  TGI: > 100 µM
HCT-116 colon
  GI50: 0.39 µM
  TGI: 11.7 µM
NCI-H23 lung
  GI50: 3.33 µM
  TGI: 24.1 µM
T-47D breast
  GI50: 0.726 µM
  TGI: > 100 µM
UACC-257 melanoma
  GI50: 7.35 µM
  TGI: > 100 µM
MOLT-4 leukemia
  GI50: 1.06 µM
  TGI: > 100 µM
786-0 renal
  GI50: 1.64 µM
  TGI: 14.6 µM
SW-620 colon
  GI50: 0.389 µM
  TGI: > 100 µM
NCI/ADR-RES ovarian
  GI50: 0.36 µM
  TGI: 3.41 µM
SNB-75 CNS
  GI50: 1.68 µM
  TGI: 21.3 µM
COLO 205 colon
  GI50: 0.774 µM
HT29 colon
  GI50: 0.399 µM
  TGI: 23.4 µM
SF-539 CNS
  GI50: 1.11 µM
  TGI: 3.79 µM
NCI-H226 lung
  GI50: 9.15 µM
  TGI: 57.3 µM
NCI-H460 lung
  GI50: 0.565 µM
  TGI: 11.6 µM
CCRF-CEM leukemia
  GI50: 2.61 µM
  TGI: > 100 µM
NCI-H522 lung
  GI50: 0.767 µM
  TGI: 5.48 µM
OVCAR-4 ovarian
  GI50: 3.47 µM
  TGI: > 100 µM
RXF 393 renal
  GI50: 1.85 µM
  TGI: 5.96 µM
LOX IMVI melanoma
  GI50: 2.19 µM
  TGI: > 100 µM
OVCAR-8 ovarian
  GI50: 1.52 µM
  TGI: 16.4 µM
SNB-19 CNS
  GI50: 2.27 µM
  TGI: > 64.7 µM
U251 CNS
  GI50: 0.857 µM
  TGI: 16.6 µM
KM12 colon
  GI50: 0.418 µM
  TGI: 12.9 µM
SK-MEL-28 melanoma
  GI50: 6.27 µM
  TGI: > 100 µM
SF-268 CNS
  GI50: 2.05 µM
  TGI: 27.7 µM
EKVX NSCLC
  GI50: 5.87 µM
  TGI: > 100 µM
HCT-15 colon
  GI50: 0.6 µM
  TGI: > 100 µM
PC-3 prostate
  GI50: 1.26 µM
  TGI: 15 µM
TK-10 renal
  GI50: 4.26 µM
  TGI: 21.8 µM
MALME-3M melanoma
  GI50: 2.87 µM
  TGI: 37.9 µM
HS 578T breast
  TGI: > 30.3 µM
M14 melanoma
  GI50: 0.511 µM
  TGI: 7.52 µM
ACHN renal
  GI50: 7.77 µM
  TGI: 57.1 µM
HCC-2998 colon
  GI50: 2.34 µM
  TGI: 18.9 µM
BT-549 breast
  GI50: 1.08 µM
  TGI: > 32.2 µM

## COc1ccc2c(c1)CC[C@@H]1[C@@H]2CC[C@]2(C)C(c3ccsc3)=C(/C=C/C(=O)c3ccccc3)C[C@@H]12
OVCAR-3 ovarian
  GI50: > 100 µM
  TGI: > 100 µM
MDA-MB-231 breast
  GI50: > 100 µM
  TGI: > 100 µM
RPMI-8226 leukemia
  GI50: 50.3 µM
  TGI: > 100 µM
UACC-62 melanoma
  GI50: > 100 µM
  TGI: > 100 µM
A498 renal
  GI50: > 100 µM
  TGI: > 100 µM
SK-MEL-2 melanoma
  GI50: > 100 µM
  TGI: > 100 µM
IGROV1 ovarian
  GI50: > 100 µM
  TGI: > 100 µM
SR leukemia
  GI50: 19.9 µM
  TGI: > 100 µM
HL-60(TB) leukemia
  GI50: 13.4 µM
  TGI: > 100 µM
K-562 leukemia
  GI50: > 100 µM
  TGI: > 100 µM
SN12C renal
  GI50: > 100 µM
  TGI: > 100 µM
OVCAR-5 ovarian
  GI50: > 100 µM
  TGI: > 100 µM
SF-295 CNS
  GI50: > 100 µM
  TGI: > 100 µM
HOP-62 NSCLC
  GI50: > 100 µM
  TGI: > 100 µM
SK-MEL-5 melanoma
  GI50: > 100 µM
  TGI: > 100 µM
UO-31 renal
  GI50: > 100 µM
  TGI: > 100 µM
CAKI-1 renal
  GI50: > 100 µM
  TGI: > 100 µM
A549 NSCLC
  GI50: > 100 µM
  TGI: > 100 µM
MDA-MB-435
  GI50: > 100 µM
  TGI: > 100 µM
DU-145 prostate
  GI50: > 100 µM
  TGI: > 100 µM
SK-OV-3 ovarian
  GI50: > 100 µM
  TGI: > 100 µM
MCF7 breast
  GI50: > 100 µM
  TGI: > 100 µM
HCT-116 colon
  GI50: > 100 µM
  TGI: > 100 µM
NCI-H23 lung
  GI50: > 100 µM
  TGI: > 100 µM
T-47D breast
  GI50: > 100 µM
  TGI: > 100 µM
UACC-257 melanoma
  GI50: > 100 µM
  TGI: > 100 µM
MOLT-4 leukemia
  GI50: 2.67 µM
  TGI: > 100 µM
786-0 renal
  GI50: > 100 µM
  TGI: > 100 µM
SW-620 colon
  GI50: > 100 µM
  TGI: > 100 µM
NCI/ADR-RES ovarian
  GI50: > 100 µM
  TGI: > 100 µM
SNB-75 CNS
  GI50: > 100 µM
  TGI: > 100 µM
COLO 205 colon
  GI50: > 100 µM
  TGI: > 100 µM
HT29 colon
  GI50: > 100 µM
  TGI: > 100 µM
SF-539 CNS
  GI50: > 100 µM
  TGI: > 100 µM
NCI-H226 lung
  GI50: > 100 µM
  TGI: > 100 µM
NCI-H460 lung
  GI50: > 100 µM
  TGI: > 100 µM
CCRF-CEM leukemia
  GI50: > 100 µM
  TGI: > 100 µM
NCI-H522 lung
  GI50: > 100 µM
  TGI: > 100 µM
OVCAR-4 ovarian
  GI50: > 100 µM
  TGI: > 100 µM
RXF 393 renal
  GI50: > 100 µM
  TGI: > 100 µM
LOX IMVI melanoma
  GI50: > 100 µM
  TGI: > 100 µM
OVCAR-8 ovarian
  GI50: > 100 µM
  TGI: > 100 µM
SNB-19 CNS
  GI50: > 100 µM
  TGI: > 100 µM
U251 CNS
  GI50: > 100 µM
  TGI: > 100 µM
KM12 colon
  GI50: > 100 µM
  TGI: > 100 µM
SK-MEL-28 melanoma
  GI50: > 100 µM
  TGI: > 100 µM
SF-268 CNS
  GI50: > 100 µM
  TGI: > 100 µM
EKVX NSCLC
  GI50: > 100 µM
  TGI: > 100 µM
HCT-15 colon
  GI50: > 100 µM
  TGI: > 100 µM
PC-3 prostate
  GI50: 39 µM
  TGI: > 100 µM
TK-10 renal
  GI50: > 100 µM
  TGI: > 100 µM
MALME-3M melanoma
  GI50: > 100 µM
  TGI: > 100 µM
HS 578T breast
  GI50: > 100 µM
  TGI: > 100 µM
M14 melanoma
  GI50: > 100 µM
  TGI: > 100 µM
ACHN renal
  GI50: > 100 µM
  TGI: > 100 µM
HCC-2998 colon
  GI50: 67.4 µM
  TGI: > 100 µM
BT-549 breast
  GI50: > 100 µM
  TGI: > 100 µM
